Experimental data from PMC11617665, “Virtual and in Vitro Screening Employing a Repurposing Approach Reveal 13‐cis‐Retinoic Acid is a PTP1B Inhibitor” (Chemmedchem, 2024).

Key:
[1] = parameters: method as in PMID 11375780; conditions: cited from earlier work
[2] = parameters: method as in PMID 19961047; conditions: ingestion during pregnancy or shortly before conception; cited from earlier work
PTP1B [3] = molecular target: T1, PTP1B (Homo sapiens, UniProt P18031); experiment: In vitro spectrophotometric PTP1B inhibition assay (pNPP substrate); assay type: biochemical
T1 sequence (P18031 1-435): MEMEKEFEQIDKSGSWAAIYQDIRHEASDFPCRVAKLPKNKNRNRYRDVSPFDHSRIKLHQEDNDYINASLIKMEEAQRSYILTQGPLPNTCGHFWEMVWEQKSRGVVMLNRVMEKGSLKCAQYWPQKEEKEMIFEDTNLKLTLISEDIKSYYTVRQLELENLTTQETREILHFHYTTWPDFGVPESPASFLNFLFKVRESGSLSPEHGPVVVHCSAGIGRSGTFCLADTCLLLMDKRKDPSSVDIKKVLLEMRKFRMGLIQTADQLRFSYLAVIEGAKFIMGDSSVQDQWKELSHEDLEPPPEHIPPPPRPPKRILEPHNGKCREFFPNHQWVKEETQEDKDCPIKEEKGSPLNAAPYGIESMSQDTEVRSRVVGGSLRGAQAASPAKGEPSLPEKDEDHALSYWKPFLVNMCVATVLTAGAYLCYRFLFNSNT
Procedure: The spectrophotometric method previously described was used.[39] The compounds and the positive control were dissolved in dimethylsulfoxide (DMSO). Aliquots of 0–10 μL solution of the compounds to be tested (in triplicate) were incubated with 85 μL of the enzyme (66 nM) in Tris [50 mM; Tris‐HCI Buffer, pH 6.8] and 5 microliters of the substrate (pNPP, 10 mM), for 15 min at 37 °C. After incubation, the absorbance was determined. The inhibitory activity for the compounds was determined as a percentage compared to the blank (Tris) according to the following equation: (1) %PTP1B=1-A415t/A415cX100%
Where %PTP1B is the percentage inhibition, A415t is the corrected absorbance of the tested compound (A415 final‐A415 initial), and A415c is the corrected absorbance of the blank (A415 final blank‐A415 initial target). The IC50 was calculated by regression analysis using the following equation: (2) %Inhibition=A100/1+I/CI50^s

PTP1B [4] = molecular target: T1, PTP1B; experiment: Enzyme kinetics studies, type of inhibition (Lineweaver-Burk); conditions: for type of inhibition: Lineweaver-Burk plot
Procedure: The assay was carried out with different concentrations of inhibitor (0, 0.005, 0.040 and 0.060 mM) and substrate (0.10, 0.20, 0.30, 0.40, and 0.50 mM). Kinetic parameters (Vmax, Km, and Ki) were obtained by nonlinear regression fit analysis using Origin 2018 software.

IC50 (PTP1B [3]; PTP1B 66 nM, pNPP, Tris pH 6.8, 15 min at 37 °C): 44 µM
inhibitory activity against PTP1B (PTP1B [3]; compounds evaluated at 2 mM): significant inhibitory activity
Ki (PTP1B [4]): 23.4 ± 2 µM
type of inhibition (PTP1B [4]): competitive inhibition
type of inhibition (PTP1B [4]; listed as 13‐cis‐retinoic acid): competitive PTP1B inhibitor
Compound: CC1=C(/C=C/C(C)=C/C=C/C(C)=C\C(=O)O)C(C)(C)CCC1 [3a, 13‐cis‐retinoic acid]
DE50 for humans [1]: 0.4 mg/kg
teratogenic effect [2]: teratogen
